Measured values: PubChem BioAssay (NCI)
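The concentration for 50% growth inhibition is given as GI50. TGI marks complete inhibition of growth.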

How the values were obtained:
Test in all cases: DTP human tumour cell line panel, 384-well format
HCC-2998 colon = tested on: HCC-2998 colon
CAKI-1 renal = tested on: CAKI-1 renal
LOX IMVI melanoma = tested on: LOX IMVI melanoma
UO-31 renal = tested on: UO-31 renal
MDA-MB-468 breast = tested on: MDA-MB-468 breast
SNB-19 CNS = tested on: SNB-19 CNS
TK-10 renal = tested on: TK-10 renal
MCF7 breast = tested on: MCF7 breast
PC-3 prostate = tested on: PC-3 prostate
CCRF-CEM leukemia = tested on: CCRF-CEM leukemia
SF-539 CNS = tested on: SF-539 CNS
OVCAR-8 ovarian = tested on: OVCAR-8 ovarian
RPMI-8226 leukemia = tested on: RPMI-8226 leukemia
HT29 colon = tested on: HT29 colon
OVCAR-4 ovarian = tested on: OVCAR-4 ovarian
NCI-H322M lung = tested on: NCI-H322M lung
UACC-62 melanoma = tested on: UACC-62 melanoma
NCI-H460 NSCLC = tested on: NCI-H460 NSCLC
SK-OV-3 ovarian = tested on: SK-OV-3 ovarian
SK-MEL-28 melanoma = tested on: SK-MEL-28 melanoma
SNB-75 CNS = tested on: SNB-75 CNS
SN12C renal = tested on: SN12C renal
U251 glioblastoma = tested on: U251 glioblastoma
MALME-3M melanoma = tested on: MALME-3M melanoma
DU-145 prostate = tested on: DU-145 prostate
NCI-H522 lung = tested on: NCI-H522 lung
EKVX NSCLC = tested on: EKVX NSCLC
NCI-H23 lung = tested on: NCI-H23 lung
SW-620 colon = tested on: SW-620 colon
OVCAR-3 ovarian = tested on: OVCAR-3 ovarian
BT-549 breast = tested on: BT-549 breast
A498 renal = tested on: A498 renal
HCT-15 colon = tested on: HCT-15 colon
786-0 renal = tested on: 786-0 renal
HL-60(TB) leukemia = tested on: HL-60(TB) leukemia
T-47D breast = tested on: T-47D breast
SF-268 CNS = tested on: SF-268 CNS
ACHN renal = tested on: ACHN renal
RXF 393 renal = tested on: RXF 393 renal
SR leukemia = tested on: SR leukemia
NCI/ADR-RES ovarian = tested on: NCI/ADR-RES ovarian
UACC-257 melanoma = tested on: UACC-257 melanoma
A549 NSCLC = tested on: A549 NSCLC
MDA-MB-231 breast = tested on: MDA-MB-231 breast
NCI-H226 lung = tested on: NCI-H226 lung
HOP-62 NSCLC = tested on: HOP-62 NSCLC
SF-295 CNS = tested on: SF-295 CNS
IGROV1 ovarian = tested on: IGROV1 ovarian
MDA-MB-435 melanoma = tested on: MDA-MB-435 melanoma
OVCAR-5 ovarian = tested on: OVCAR-5 ovarian
MOLT-4 leukemia = tested on: MOLT-4 leukemia
SK-MEL-5 melanoma = tested on: SK-MEL-5 melanoma
HOP-92 NSCLC = tested on: HOP-92 NSCLC
KM12 colon = tested on: KM12 colon
HCT-116 colon = tested on: HCT-116 colon
HS 578T breast = tested on: HS 578T breast
M14 melanoma = tested on: M14 melanoma
COLO 205 colon = tested on: COLO 205 colon

CN1CCN(c2ccc(C(=O)Nc3n[nH]c4ccc(Cc5cc(F)cc(F)c5)cc34)c(NC3CCOCC3)c2)CC1
GI50 (HCC-2998 colon): 1030 nM
TGI (HCC-2998 colon): 2220 nM
GI50 (CAKI-1 renal): 1630 nM
TGI (CAKI-1 renal): 3000 nM
GI50 (LOX IMVI melanoma): 1530 nM
TGI (LOX IMVI melanoma): 2870 nM
GI50 (UO-31 renal): 1590 nM
TGI (UO-31 renal): 2950 nM
GI50 (MDA-MB-468 breast): 1120 nM
TGI (MDA-MB-468 breast): 2330 nM
GI50 (SNB-19 CNS): 1700 nM
TGI (SNB-19 CNS): 3110 nM
GI50 (TK-10 renal): 1570 nM
TGI (TK-10 renal): 2930 nM
GI50 (MCF7 breast): 1140 nM
TGI (MCF7 breast): 2370 nM
GI50 (PC-3 prostate): 1230 nM
TGI (PC-3 prostate): 2480 nM
GI50 (CCRF-CEM leukemia): 1870 nM
TGI (CCRF-CEM leukemia): 3300 nM
GI50 (SF-539 CNS): 1680 nM
TGI (SF-539 CNS): 3060 nM
GI50 (OVCAR-8 ovarian): 1660 nM
TGI (OVCAR-8 ovarian): 3040 nM
GI50 (RPMI-8226 leukemia): 1350 nM
TGI (RPMI-8226 leukemia): 2650 nM
GI50 (HT29 colon): 1300 nM
TGI (HT29 colon): 2610 nM
GI50 (OVCAR-4 ovarian): 1020 nM
TGI (OVCAR-4 ovarian): 2230 nM
GI50 (NCI-H322M lung): 1470 nM
TGI (NCI-H322M lung): 2790 nM
GI50 (UACC-62 melanoma): 1600 nM
TGI (UACC-62 melanoma): 2960 nM
GI50 (NCI-H460 NSCLC): 1570 nM
TGI (NCI-H460 NSCLC): 2950 nM
GI50 (SK-OV-3 ovarian): 1430 nM
TGI (SK-OV-3 ovarian): 2760 nM
GI50 (SK-MEL-28 melanoma): 1670 nM
TGI (SK-MEL-28 melanoma): 3040 nM
GI50 (SNB-75 CNS): 1370 nM
TGI (SNB-75 CNS): 2670 nM
GI50 (SN12C renal): 1210 nM
TGI (SN12C renal): 2480 nM
GI50 (U251 glioblastoma): 1680 nM
TGI (U251 glioblastoma): 3060 nM
GI50 (MALME-3M melanoma): 1270 nM
TGI (MALME-3M melanoma): 2530 nM
GI50 (DU-145 prostate): 1550 nM
TGI (DU-145 prostate): 2890 nM
GI50 (NCI-H522 lung): 1400 nM
TGI (NCI-H522 lung): 2710 nM
GI50 (EKVX NSCLC): 1200 nM
TGI (EKVX NSCLC): 2460 nM
GI50 (NCI-H23 lung): 1230 nM
TGI (NCI-H23 lung): 2480 nM
GI50 (SW-620 colon): 1490 nM
TGI (SW-620 colon): 2840 nM
GI50 (OVCAR-3 ovarian): 1050 nM
TGI (OVCAR-3 ovarian): 2290 nM
GI50 (BT-549 breast): 1730 nM
TGI (BT-549 breast): 3120 nM
GI50 (A498 renal): 1710 nM
TGI (A498 renal): 3090 nM
GI50 (HCT-15 colon): 1160 nM
TGI (HCT-15 colon): 2410 nM
GI50 (786-0 renal): 1510 nM
TGI (786-0 renal): 2850 nM
GI50 (HL-60(TB) leukemia): 1830 nM
TGI (HL-60(TB) leukemia): 3240 nM
GI50 (T-47D breast): 1350 nM
TGI (T-47D breast): 2650 nM
GI50 (SF-268 CNS): 1600 nM
TGI (SF-268 CNS): 2970 nM
GI50 (ACHN renal): 1540 nM
TGI (ACHN renal): 2880 nM
GI50 (RXF 393 renal): 825 nM
TGI (RXF 393 renal): 2200 nM
GI50 (SR leukemia): 24.3 nM
TGI (SR leukemia): 55.4 nM
GI50 (NCI/ADR-RES ovarian): 1550 nM
TGI (NCI/ADR-RES ovarian): 2900 nM
GI50 (UACC-257 melanoma): 1550 nM
TGI (UACC-257 melanoma): 2900 nM
GI50 (A549 NSCLC): 1410 nM
TGI (A549 NSCLC): 2730 nM
GI50 (MDA-MB-231 breast): 1230 nM
TGI (MDA-MB-231 breast): 2480 nM
GI50 (NCI-H226 lung): 727 nM
TGI (NCI-H226 lung): 2070 nM
GI50 (HOP-62 NSCLC): 1430 nM
TGI (HOP-62 NSCLC): 2750 nM
GI50 (SF-295 CNS): 1680 nM
TGI (SF-295 CNS): 3050 nM
GI50 (IGROV1 ovarian): 1010 nM
TGI (IGROV1 ovarian): 2210 nM
GI50 (MDA-MB-435 melanoma): 1690 nM
TGI (MDA-MB-435 melanoma): 3070 nM
GI50 (OVCAR-5 ovarian): 1480 nM
TGI (OVCAR-5 ovarian): 2840 nM
GI50 (MOLT-4 leukemia): 1360 nM
TGI (MOLT-4 leukemia): 2650 nM
GI50 (SK-MEL-5 melanoma): 1590 nM
TGI (SK-MEL-5 melanoma): 2940 nM
GI50 (HOP-92 NSCLC): 1140 nM
TGI (HOP-92 NSCLC): 2360 nM
TGI (KM12 colon): 1370 nM
GI50 (HCT-116 colon): 1500 nM
TGI (HCT-116 colon): 2850 nM
GI50 (HS 578T breast): 1530 nM
TGI (HS 578T breast): 2860 nM
GI50 (M14 melanoma): 1690 nM
TGI (M14 melanoma): 3060 nM
GI50 (COLO 205 colon): 1720 nM
TGI (COLO 205 colon): 3120 nM
